Experimental data as given in ChEMBL document CHEMBL1138534, “Cellular effects of reversed amidines on Trypanosoma cruzi” (Antimicrob Agents Chemother, 2007).
The source made the active and inactive calls. The calls are words filed in the database; no cut-off is given here.

Key:
[1] = system: Trypanosoma cruzi; test: Antitrypanosomal activity against Trypanosoma cruzi Y amastigotes after 24 hrs by light microscope; format: functional, organism-based
[2] = system: Trypanosoma cruzi; test: Antitrypanosomal activity against Trypanosoma cruzi Y bloodstream trypomastigotes assessed as parasite death at 32 uM after 2 hrs by light microscope; format: functional
[3] = system: Trypanosoma cruzi; test: Antitrypanosomal activity against Trypanosoma cruzi Y bloodstream trypomastigotes assessed as reduction in mitochondrial membrane potential at IC50 after 24 hrs by flow cytometry; format: functional
[4] = system: Trypanosoma cruzi; test: Antitrypanosomal activity against Trypanosoma cruzi Y bloodstream trypomastigotes assessed as intracellular dilated membrane profile after 24 hrs by transmission electron micrograph; format: functional, organism-based
[5] = system: Trypanosoma cruzi; test: Antitrypanosomal activity against Trypanosoma cruzi Y bloodstream trypomastigotes assessed as parasite death at 32 uM after 24 hrs by light microscope; format: functional
[6] = system: Trypanosoma cruzi; test: Antitrypanosomal activity against Trypanosoma cruzi Y bloodstream trypomastigotes assessed as swelling in mitochondria and kinetoplast after 24 hrs by transmission electron micrograph; format: functional, organism-based
[7] = system: Trypanosoma cruzi; test: Antitrypanosomal activity against Trypanosoma cruzi Y bloodstream trypomastigotes assessed as alteration in microtubule organization after 24 hrs by transmission electron micrograph; format: functional, organism-based
[8] = system: Trypanosoma cruzi; test: Antitrypanosomal activity against Trypanosoma cruzi Y bloodstream trypomastigotes assessed as alteration in mitochondria-kinetoplast complex after 24 hrs by transmission electron micrograph; format: functional, organism-based
[9] = system: Trypanosoma cruzi; test: Antitrypanosomal activity against Trypanosoma cruzi Y bloodstream trypomastigotes assessed as microtubule axoneme structure after 24 hrs by transmission electron micrograph; format: functional, organism-based
[10] = system: Trypanosoma cruzi; test: Antitrypanosomal activity against Trypanosoma cruzi Y bloodstream trypomastigotes after 24 hrs by light microscope; format: functional, organism-based
[11] = system: Trypanosoma cruzi; test: Antitrypanosomal activity against Trypanosoma cruzi Y bloodstream trypomastigotes assessed as parasite lysis at 3.5 uM after 24 hrs by light microscope; format: functional
[12] = system: Trypanosoma cruzi; test: Antitrypanosomal activity against Trypanosoma cruzi Y bloodstream trypomastigotes assessed as parasite death at 0.014 uM after 24 hrs by light microscope; format: functional
[13] = system: Trypanosoma cruzi; test: Antitrypanosomal activity against Trypanosoma cruzi Y amastigotes assessed as disorganization of subpellicular mitochondria at IC50 after 24 hrs by transmission electron microscopy; format: functional, organism-based
[14] = system: Trypanosoma cruzi; test: Antitrypanosomal activity against Trypanosoma cruzi Y bloodstream trypomastigotes assessed as parasite death at 3.5 uM after 24 hrs by light microscope; format: functional
[15] = system: Trypanosoma cruzi; test: Antitrypanosomal activity against Trypanosoma cruzi Y amastigotes assessed as swelling and electrodense mitochondria at IC50 after 24 hrs by transmission electron microscopy; format: functional, organism-based
[16] = system: Trypanosoma cruzi; test: Antitrypanosomal activity against Trypanosoma cruzi Y amastigotes assessed as intense vesicular profile in flageller pocket at IC50 after 24 hrs by transmission electron microscopy; format: functional, organism-based
[17] = system: Trypanosoma cruzi; test: Antitrypanosomal activity against Trypanosoma cruzi Y amastigotes assessed as disorganization of kinetoplast at IC50 after 24 hrs by transmission electron microscopy; format: functional, organism-based
[18] = system: Trypanosoma cruzi; test: Antitrypanosomal activity against Trypanosoma cruzi Y amastigotes assessed as alteration in nuclear morphology at IC50 after 24 hrs by transmission electron microscopy; format: functional, organism-based
[19] = system: Trypanosoma cruzi; test: Antitrypanosomal activity against Trypanosoma cruzi Y amastigotes assessed as vacuolization and loss of cytoplasm components at IC50 after 24 hrs by transmission electron microscopy; format: functional, organism-based
[20] = system: Trypanosoma cruzi; test: Antitrypanosomal activity against Trypanosoma cruzi Y bloodstream trypomastigotes assessed as alteration in nuclear morphology after 24 hrs by transmission electron micrograph; format: functional, organism-based
[21] = system: Trypanosoma cruzi; test: Antitrypanosomal activity against Trypanosoma cruzi Y bloodstream trypomastigotes at 1.18 uM after 2 hrs by light microscope; format: functional

Compound | IC50 [1] | Activity [3] | Activity [6] | Activity [9] | IC50 [10] | Activity [11] | Activity [14] | Activity [16] | further results
COc1cc(NC(=N)N)ccc1-c1ccc(-c2ccc(NC(=N)N)cc2OC)o1 | > 10600 nM | inactive | Active | Active | 19400 nM |  |  |  | Activity [2]: 23%; Activity [4]: Active; Activity [5]: 84%; Activity [7]: Active; Activity [8]: Active
Cc1ccc(C(=N)Nc2ccc(-c3ccc(-c4ccc(NC(=N)c5ccc(C)cn5)cc4OC(C)C)o3)c(OC(C)C)c2)nc1 | 1140 nM | 55% |  |  | 15 nM | 50% | 95% |  | Activity [12]: 49%; Activity [13]: Active
Cc1cc(NC(=N)c2ccccn2)ccc1-c1ccc(-c2ccc(NC(=N)c3ccccn3)cc2C)o1 | 240 nM | 54% |  |  | 450 nM | 55% | 95% | Active | Activity [15]: Active
N=C(Nc1ccc(-c2cc(-c3ccccc3)c(-c3ccc(NC(=N)c4ccccn4)cc3)o2)cc1)c1ccccn1 | 8.6 nM | 59% | Active | Active | 90 nM | Active | 100% | Active | Activity [17]: Active; Activity [18]: Active; Activity [19]: Active; Activity [20]: Active; Activity [21]: 55%
